From patent publication US20040091855A1, “Method for production of antivirals by use of HIV-derived HR1 peptides, and trimers formed therefrom” (priority 2002, published 2004) come the findings set out here.

Test [1] relates to trimers (SEQ ID NO:36) and labeled HR2 peptide (SEQ ID NO:33). Put plainly: Fluorescence polarization assay of inhibition of complexing between trimers and labeled HR2 peptide. The test is classed as binding, HIV-1. To be noted: read-out: Concentration to inhibit complexing between the trimers and labeled HR2 peptide by 50% (IC50); fluorescein-labeled HR2 peptide 0.2 nM; trimers SEQ ID NO:36 50 nM. On the technique in general: Polarisation of emitted light reports the rotation of a fluorescent probe.
Experimental: In an example of a homogenous assay carried out as a liquid phase-based assay system, a fluorescence polarization assay was used in taking advantage of the high affinity interaction between HR1 and HR2 regions. Into reaction wells of a high throughput plate (>300 reaction wells) was added 20 μl of a solution containing a desired concentration of molecule to be assessed for its ability to bind to trimers employed with the present invention (e.g., formed from synthetic peptide) and either inhibit or disrupt HR1-HR2 binding interactions (“complexing between HR1 and HR2″). […] To each reaction well was then added 10 μl of a solution containing a desired concentration of trimers (formed from synthetic peptide employed with the present invention). […] Fluorescence intensity of polarized light was then measured with a detection system comprising a spectrophotometer, and the amount of polarized light was calculated using standard software in the art. In this example of the method according to the present invention, molecules assessed for ability to inhibit or disrupt complexing between trimers and a labeled HR2 peptide (e.g., SEQ ID NO:33) comprised either of two HR2 peptides.

In the next test the test system is HIV-1. The following applies: in vitro infectivity assay. An excerpt: These assays score for reduction of infectious virus titer employing the indicator cell lines MAGI or the CCR5 expressing derivative cMAGI. Both cell lines exploit the ability of HIV-1 tat to transactivate the expression of a β-galactosidase reporter gene driven by the HIV-LTR. The β-gal reporter has been modified to localize in the nucleus and can be detected with the X-gal substrate as intense nuclear staining within a few days of infection. The number of stained nuclei can thus be interpreted as equal to the number of infectious virions in the challenge inoculum if there is only one round of infection prior to staining. […] The cells were cultured for 2 more days, and then fixed and stained with the X-gal substrate to detect HIV-infected cells. The number of infected cells for each control and peptide dilution was determined with the CCD-imager, and then the IC50 and IC90 were calculated (expressed in μg/ml).

In the case of “HR2 peptide A: HR2 peptide, derived from the HR2 region of HIV-1 gp41; also used labeled as binding partner (WMEWDREINNYTSLIHSLIEESQNQQEKNEQELLEL)”, the IC50 in test [1] is 68 nM. Also, in the test with HIV-1, the “Antiviral activity against HIV-1 IC50” value was 0.002 µg/mL and the “Antiviral activity against HIV-1 IC90” value worked out at 0.072 µg/mL.
